According to patent US12310970B2, “Compounds and methods for treating or preventing anterior segment ocular disorders and/or retinal degenerations” (YALE UNIVERSITY, priority 2018, dated 2025):
“Also recorded” adds a separate entry of the source. Structures can show the parent of a compound that is named as a salt.

What was measured:
Assay type in all cases: cell-based
[1] = test system: Human ARPE-19 cells; test: TBHP-induced oxidative stress cell viability assay (RealTime-Glo) in ARPE-19; details: for protection from oxidative stress-induced cell death: 0.9 μM 24 h preincubation, 400 μM TBHP 24 h; for protection from TBHP-induced cell death in screen of 65,000 compound Chemical Diversity library: initial high-throughput screening
Protocol: Immortalized human RPE cells (ARPE-19) obtained from the American Type Culture Collection (ATCC, Manassas, VA, USA) were cultured in Dulbecco's modified Eagle's medium (DMEM; Thermo Fisher Scientific, Waltham, MA) containing 10% fetal bovine serum (FBS), 100 IU/mL penicillin, 100 μg/mL streptomycin, 100 μg/mL gentamicin, and 2.5 μg/mL amphotericin B (Thermo Fisher Scientific).
Human ARPE-19 cells were plated in 96-well plates for 24 hours in DMEM supplemented with FBS and antibiotics. ARPE-19 cells were preincubated with either ciclopirox olamine (Sigma), compound 414 (Chemical Diversity, San Diego, CA), compound 434 (Chemical Diversity) or no compound for 24 hours and then exposed to varying concentrations of tert-butyl hydroperoxide (TBHP; Sigma-Aldrich, St. Louis, MO) the next day for 24 hours. Cell viability was measured the following day by RealTime-Glo™ MT cell viability assay (Promega, Madison, WI) using a BioTek FLx800™ fluorescence reader (BioTek, Winooski, VT).
Initial screening of a library with 640 FDA-approved drugs (Enzo Life Sciences FDA-approved drug library) with known bioactivity, safety & bioavailability, and natural products was performed using TBHP, a chemical oxidizing agent, as a model of oxidative stress-induced cell death.
Initial screening of a library with 65,000 synthetic compounds (Chemical Diversity library) using tert-butyl hydroperoxide (TBHP), a chemical oxidizing agent, as a model of oxidative stress-induced cell death.

[2] = test system: Human iPSC-derived RPE cells; test: Mitochondrial respiration (Seahorse XF) after TBHP in iPSC-derived RPE
Protocol: Human iPSC-derived RPE cells were preincubated with 3 μM ciclopirox olamine for 18 hours, then treated with 500 μM tert-butyl hydroperoxide (TBHP) for 24 hours. Oxygen consumption rate was determined using the Seahorse XF analyzer to measure mitochondrial function. FIG. 7A depicts basal respiration. FIG. 7B depicts maximal oxygen consumption rate (OCR). FIG. 7C depicts spare respiratory capacity. FIG. 7D depicts ATP production.
Human iPSCs were derived from fibroblasts of a donor with no history of retinal disease. A skin specimen was processed as previously described. Briefly, the skin biopsy was transplanted onto a culture plate and fibroblasts were grown to confluence and then treated with four Yamanaka factors, Oct3/4, Sox-2, Klf4, and c-Myc using the CytoTune™-iPS 2.0 Sendai Reprogramming Kit according to the manufacturer's instructions (Invitrogen-Gibco, Life Technologies=) (31-36). Newly generated iPSC colonies were purified and expanded using MTeSR1™ media (Stem Cell Technologies, Vancouver, Canada).
Human iPSCs were differentiated to iPSC-derived RPE cells as previously described. Human iPSC colonies were lifted and grown as embryoid bodies (EBs) for 4 days in EB formation medium (STEMCELL Technologies). After 5 days, EB medium was replaced with neural induction medium (NIM) containing DMEM/F12 (1:1), 1% N-2 supplement (MEM non-essential amino acids and 2 μg/mL heparin) and suspended EB aggregates were plated onto laminin-coated culture plates and allowed to reattach. After 16 days, neural induction medium was replaced with retinal differentiation medium (RDM) containing DMEM/F12 (3:1), 2% B-27 supplement (Invitrogen-Gibco, Life Technologies), MEM non-essential amino acids and penicillin/streptomycin. The adherent culture was maintained in RDM until the appearance of pigmented iPSC-derived RPE cells. Patches of pigmented iPSC-derived RPE cells were then micro-dissected and cultured on Transwell® plates with RDM+10% fetal bovine serum (FBS) for 2 days and then switched to RDM with 2% FBS until the cells were confluent. Human iPSC-derived RPE cells were then maintained in RDM and allowed to form monolayers within 90 days.
(§1) Analysis of mitochondrial function was performed on live cells using XFe96 Extracellular Flux Analyzer (Seahorse Bioscience) using the cell mito stress test (CMST). Human ARPE-19 cells or iPSC-derived RPE were seeded in a 96 well plate and grown for 24 h. Cells were preincubated with compound or no compound for 24 hours and then exposed to varying concentrations of TBHP the next day for 24 hours. Cells were the washed with CMST assay medium (XF base medium DMEM supplemented with 2 mM glutamine, 5.5 mM glucose, and 1 mM sodium pyruvate, pH 7.4), and then incubated in CMST medium for 1 h at 37° C. in a non-CO2 incubator. The CMST assay protocol was performed by manufacturer guidance (Seahorse Bioscience). Oxygen consumption rate (OCR) was detected under basal conditions followed by the sequential addition of oligomycin, carbonyl cyanide 4-(trifluoromethoxy) phenylhydrazone (FCCP), as well as rotenone and antimycin A. The measured parameters include: basal respiration, adenosine triphosphate (ATP) production, maximal respiration, spare respiratory capacity.
(§2) Human iPSC-derived RPE cells were preincubated with 0.6 μM of compound 414 or compound 434 for 18 hours, then treated with 300 μM TBHP for 24 hours and oxygen consumption rate determined using the Seahorse XF analyzer.

[3] = test system: Human ARPE-19 cells; test: UV-B radiation damage in ARPE-19; details: then 1200 mJ/cm^2 UV-B
Protocol: Human ARPE-19 cells were plated in 96-well plates for 24 hours in DMEM supplemented with FBS and antibiotics. ARPE-19 cells were preincubated with compound or no compound for 24 hours and then exposed to 1200 mJ/cm^2 ultraviolet B (UV-B) radiation in a chamber. Cell viability was measured the following day by […] MT cell viability assay (Promega) using a BioTek FLx800™ fluorescence reader (BioTek, Winooski, VT).
Human ARPE-19 cells were then preincubated with 3 μM of ciclopirox olamine for 24 hours and then exposed to 1200 mJ/cm^2 of UV-B radiation. Ciclopirox olamine protects human ARPE-19 cells exposed to 1200 mJ/cm^2 UV-B radiation (FIG. 6).
To confirm the results using TBHP, another model of oxidative stress in which human RPE cells are exposed to UV-B light was employed. […] Human ARPE-19 cells were then preincubated with 0.6 μM of compound 414 and compound 434 for 24 hours and then exposed to 1200 mJ/cm^2 of UV-B radiation. Compound 414 and compound 434 protective human ARPE-19 cells exposed to 1200 mJ/cm^2 UV-B radiation (FIG. 11).

[4] = test system: Human ARPE-19 cells; test: Mitochondrial respiration (Seahorse XF, oxygen consumption rate) after TBHP in ARPE-19
Protocol: as §1
Human ARPE-19 cells were preincubated with 3 μM ciclopirox olamine for 18 hours, then treated with 500 μM TBHP for 24 hours and oxygen consumption rate determined using the Seahorse XF analyzer.
as §2, with “The effects of compound treatment on mitochondrial function in human RPE cells were investigated. Human” for “Human”, “ARPE-19” for “iPSC-derived RPE”

[5] = 3 μM 18 h, then 500 μM TBHP 24 h
[6] = 3 μM 18 h, then 500 μM TBHP 24 h, vs TBHP-treated group
[7] = 0.6 μM 18 h, then 300 μM TBHP 24 h

| SMILES | protection from oxidative stress-induced cell death ([1]; ARPE-19) | protection from TBHP-induced cell death in screen of 65,000 compound Chemical Diversity library ([1]; ARPE-19) | ATP production [2, 7] | basal respiration [2, 7] | protection from UV-B radiation damage ([3]; 0.6 μM 24 h) | ATP production [4, 7] | basal respiration [4, 7] | maximal OCR [4, 7] | reserve capacity [4, 7] | other results |
| --- | --- | --- | --- | --- | --- | --- | --- | --- | --- | --- |
| Cc1cc(C2CCCCC2)n(O)c(=O)c1 [ciclopirox olamine, 6-cyclohexyl-1-hydroxy-4-methyl-2(1H)-pyridone, ethanolamine salt, reference compound] |  |  |  |  |  |  |  |  |  | cell viability after challenge with TBHP (luminescence); protection from oxidative stress-induced cell death ([1]; ARPE-19, ciclopirox olamine preincubation 24 h, then TBHP 24 h (FIG. 1: 0.9 μM, 300 μM TBHP)): protects; also recorded: significantly enhances cell viability; protection from TBHP-induced cell death in screen of 640 FDA-approved drug library ([1]; ARPE-19, initial library screening): significantly protects; cell viability, treatment alone compared to no treatment ([1]; human RPE cells, ciclopirox olamine alone, no TBHP): significantly enhances cell viability; ATP production [2, 5]: significantly increased; basal respiration [2, 5]: significantly increased; maximal OCR [2, 5]: significantly increased; reserve capacity [2, 5]: significantly increased; protection from UV-B radiation damage ([3]; 3 μM 24 h): protects; ATP turnover [4, 6]: significantly increased; basal respiration [4, 6]: significantly increased; maximal OCR [4, 6]: significantly increased; reserve capacity [4, 6]: significantly increased |
| CCc1cccc(C)c1Nc1c(-c2cc(Br)ccc2O)nc2ncccn12 [compound 414] | Protective effects | significantly protects | significantly increased | significantly increased | protective | significantly increased | significantly increased | significantly increased | significantly increased | cell viability after challenge with TBHP (luminescence); protection from oxidative stress-induced cell death ([1]; ARPE-19, compound preincubation, TBHP 24 h (FIG. 8: 0.6 μM, 300 μM TBHP)): protects; also recorded: significantly enhances cell viability; maximal OCR [2, 7]: significantly increased; reserve capacity [2, 7]: significantly increased |
| CCc1cccc(C)c1Nc1c(-c2cc(Br)ccc2O)nc2nc(C)cc(C)n12 [compound 434] | Protective effects | significantly protects | significantly increased | significantly increased | protective | significantly increased | significantly increased | significantly increased | significantly increased |  |
